Results taken from patent US20100075965A1, “PI3 KINASE INHIBITORS AND METHODS OF THEIR USE” (Novartis AG, priority 2006, published 2010).

What was measured:
A2780 cells = assay: Viability assay in A2780 (Cell Titer Glo); type: cell-based, human; details: Homo sapiens; A2780 cells; read-out: A2780 Cell prolif. EC50
Protocol: Cell viability was assessed with Cell Titer Glo assay, Promega. Cells were seeded in TC treated 96-well plates at a density of 1,000 (A2780 cells) per well in DMEM with 10% FBS, 1% Sodium Pyruvate, and 1% Penicillin Streptomycin for a minimum of 2 hrs prior to addition of compound. Test compounds were serially diluted (3 fold) in DMSO to 500× the final concentration. For each concentration of test compound, 2 μL (500×) aliquots of compound or 100% DMSO (control) were diluted in 500 μL of culture medium to 2× final concentration then diluted 1× on the cells. Cells were incubated for 72 hrs at 37° C., 5% CO2. After which Cell Titer Glo is added to determine viable cells, the assay was performed according to the manufacturer's instruction (Promega Corporation, Madison, Wis. USA). Each experimental condition was performed in duplicate. Raw data was imported in Abase and EC50s calculated with XL-fit data analysis software and are shown in Tables 1 and 2 in the column labeled “A2780 Cell prolif. EC50”.

PI3 K Alpha = PI3 K Alpha (Homo sapiens, UniProt P42336); assay: PI3 kinase phosphorylation assays (homogenous solution phase, one step solid phase, ATP depletion/KinaseGlo); type: biochemical; details: read-out: PI3K Alpha IC50
PI3 K Alpha, sequence (P42336 whole entry): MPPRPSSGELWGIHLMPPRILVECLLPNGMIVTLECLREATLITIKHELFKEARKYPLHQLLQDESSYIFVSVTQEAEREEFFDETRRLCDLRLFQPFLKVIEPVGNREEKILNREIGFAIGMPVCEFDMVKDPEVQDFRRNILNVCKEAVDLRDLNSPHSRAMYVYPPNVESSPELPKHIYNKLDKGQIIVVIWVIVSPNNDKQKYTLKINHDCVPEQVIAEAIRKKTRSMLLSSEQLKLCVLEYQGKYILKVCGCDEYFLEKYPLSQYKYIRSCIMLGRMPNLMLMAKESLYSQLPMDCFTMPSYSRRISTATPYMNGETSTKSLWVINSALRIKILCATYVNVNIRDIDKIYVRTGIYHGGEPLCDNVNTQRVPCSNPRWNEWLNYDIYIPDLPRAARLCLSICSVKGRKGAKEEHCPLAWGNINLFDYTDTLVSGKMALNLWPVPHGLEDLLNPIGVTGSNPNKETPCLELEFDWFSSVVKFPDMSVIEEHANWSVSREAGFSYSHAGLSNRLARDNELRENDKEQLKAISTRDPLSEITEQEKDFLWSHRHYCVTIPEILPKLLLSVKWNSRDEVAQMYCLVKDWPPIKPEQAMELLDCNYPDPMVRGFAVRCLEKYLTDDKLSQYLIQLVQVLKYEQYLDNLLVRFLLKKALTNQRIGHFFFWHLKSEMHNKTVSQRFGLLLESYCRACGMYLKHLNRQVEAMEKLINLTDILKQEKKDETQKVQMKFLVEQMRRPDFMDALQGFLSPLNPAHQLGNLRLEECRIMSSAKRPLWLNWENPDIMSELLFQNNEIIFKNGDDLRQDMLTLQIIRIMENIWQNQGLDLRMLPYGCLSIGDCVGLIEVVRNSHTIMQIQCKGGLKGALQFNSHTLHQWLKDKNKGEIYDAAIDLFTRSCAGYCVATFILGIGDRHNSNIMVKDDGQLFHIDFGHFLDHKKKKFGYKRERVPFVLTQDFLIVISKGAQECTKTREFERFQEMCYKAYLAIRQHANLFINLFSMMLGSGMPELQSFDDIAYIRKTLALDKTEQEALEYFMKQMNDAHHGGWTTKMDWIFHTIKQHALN
PI3 K Alpha, sequence (P27986 whole entry partner): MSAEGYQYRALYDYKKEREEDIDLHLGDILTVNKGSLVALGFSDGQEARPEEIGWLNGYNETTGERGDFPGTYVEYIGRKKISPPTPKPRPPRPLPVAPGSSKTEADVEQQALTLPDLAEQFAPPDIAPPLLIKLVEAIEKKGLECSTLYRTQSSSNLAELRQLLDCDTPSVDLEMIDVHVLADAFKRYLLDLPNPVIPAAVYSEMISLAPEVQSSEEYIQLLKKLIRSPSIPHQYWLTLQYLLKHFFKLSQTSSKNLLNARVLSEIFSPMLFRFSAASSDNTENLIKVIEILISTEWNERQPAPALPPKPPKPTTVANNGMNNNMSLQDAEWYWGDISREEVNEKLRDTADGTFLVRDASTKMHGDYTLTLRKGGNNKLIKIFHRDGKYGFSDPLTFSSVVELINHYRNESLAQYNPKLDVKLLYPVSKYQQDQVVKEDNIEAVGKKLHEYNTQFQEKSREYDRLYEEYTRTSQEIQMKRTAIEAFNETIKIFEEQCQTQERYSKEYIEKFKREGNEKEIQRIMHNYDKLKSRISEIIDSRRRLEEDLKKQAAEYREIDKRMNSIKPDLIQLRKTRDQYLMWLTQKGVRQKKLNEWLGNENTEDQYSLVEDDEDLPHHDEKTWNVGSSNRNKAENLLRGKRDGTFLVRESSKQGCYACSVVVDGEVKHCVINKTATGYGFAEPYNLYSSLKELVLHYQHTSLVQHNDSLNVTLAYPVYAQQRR

EC50 (A2780 cells) [µM]	IC50 (PI3 K Alpha) [µM]	SMILES
< 25	< 1	CNC(=O)C1CCN(C(=O)Nc2cn3cc(-c4cnc(N)c(C(F)(F)F)c4)ccc3n2)C1 (centres unmarked) [Example 154, N1-(6-(6-amino-5-(trifluoromethyl)pyridin-3-yl)imidazo[1,2-a]pyridin-2-yl)-N3-methylpyrrolidine-1,3-dicarboxamide]
< 25	< 1	CC(=O)Nc1cn2cc(-c3cnc(N)c(C(=O)N4CCNCC4)c3)ccc2n1 [Example 160, N-(6-(6-amino-5-(piperazine-1-carbonyl)pyridin-3-yl)imidazo[1,2-a]pyridin-2-yl)acetamide]
< 25	< 1	CC(=O)Nc1cn2cc(-c3cnc(N)cn3)ccc2n1 [Example 161, N-(6-(5-aminopyrazin-2-yl)imidazo[1,2-a]pyridin-2-yl)acetamide]
< 25	< 1	Nc1ncc(-c2ccc3nc(NC(=O)c4ccncc4)cn3c2)cc1C(F)(F)F [Example 163]
< 25	< 1	COC[C@@H]1CCCN1C(=O)Nc1cn2cc(-c3cnc(N)c(C(F)(F)F)c3)ccc2n1 [Example 165, (S)-N-(6-(6-amino-5-(trifluoromethyl)pyridin-3-yl)imidazo[1,2-a]pyridin-2-yl)-2-(methoxymethyl) pyrrolidine-1-carboxamide]
< 25	< 1	COc1cc(-c2ccc3nc(NC(C)=O)cn3c2C)cnc1N [Example 167, N-(6-(6-amino-5-methoxypyridin-3-yl)-5-methylimidazo[1,2-a]pyridin-2-yl)acetamide]
< 25	< 1	CC(C)(C)OC(=O)N1CC[C@H]1C(=O)Nc1cn2cc(-c3cnc(N)c(C(F)(F)F)c3)ccc2n1 [Example 169, (S)-tert-butyl 2-(6-(6-amino-5-(trifluoromethyl)pyridin-3-yl)imidazo[1,2-a]pyridin-2-ylcarbamoyl) azetidine-1-carboxylate]
< 25	< 1	CC(=O)Nc1cn2nc(-c3cnc(N)c(N4CCOCC4)n3)ccc2n1 [Example 176, N-(6-(5-amino-6-morpholino-pyrazin-2-yl)imidazo[1,2-b]pyridazin-2-yl)acetamide]
< 25	< 1	Cc1ccc(C2CCCN2C(=O)Nc2cn3cc(-c4cnc(N)c(C(F)(F)F)c4)ccc3n2)s1 (centres unmarked) [Example 180, N-(6-(6-amino-5-(trifluoromethyl)pyridin-3-yl)imidazo[1,2-a]pyridin-2-yl)-2-(5-methyithiophen-2-yl)pyrrolidine-1-carboxamide]
< 10	< 1	Nc1ncc(-c2ccc3nc(NC(=O)C4CCN4)cn3n2)cc1C(F)(F)F (centres unmarked) [Example 189]
< 10	< 1	Nc1ncc(-c2ccc3nc(NC(=O)N4CCCC4C(F)(F)F)cn3c2)cc1C(F)(F)F (centres unmarked) [Example 191]

More lines, now with the values behind:

SMILES	EC50 (A2780 cells) [µM]	IC50 (PI3 K Alpha) [µM]
CC(=O)Nc1cn2cc(-c3cnc(N)c(C(=O)N4CCCC4)c3)ccc2n1 [Example 155, N-(6-(6-amino-5-(pyrrolidine-1-carbonyl)pyridin-3-yl)imidazo[1,2-a]pyridin-2-yl)acetamide]	< 25	< 1
C/C=C\c1c(NC(C)=O)nc2ccc(-c3cnc(N)c(C(F)(F)F)c3)cn12 [Example 156, (Z)-N-(6-(6-amino-5-(trifluoromethyl)pyridin-3-yl)-3-(prop-1-enyl)imidazo [1,2-a]pyridin-2-yl)acetamide]	< 25	< 1
CC(=O)Nc1cn2cc(-c3cnc(N)c(/C=N/OC(C)(C)C)c3)ccc2n1 [Example 157, (E)-N-(6-(6-amino-5-((tert-butoxyimino)methyl)pyridin-3-yl)imidazo[1,2-a]pyridin-2-yl)acetamide]	< 25	< 1
CC(=O)Nc1cn2cc(-c3cnc(N)c(C(=O)NCCNS(C)(=O)=O)n3)ccc2n1 [Example 158, 6-(2-acetamido-imidazo[1,2-a]pyridin-6-yl)-3-amino-N-(2-(methylsulfon amido)ethyl) pyrazine-2-carboxamide]	< 25	< 1
N#Cc1ccc(C(=O)Nc2cn3cc(-c4cnc(N)c(C(F)(F)F)c4)ccc3n2)cc1 [Example 159, N-(6-(6-amino-5-(trifluoromethyl)pyridin-3-yl)imidazo[1,2-a]pyridin-2-yl)-4-cyanobenzamide]	< 25	< 1
CC(=O)Nc1ccc(-c2c(NC(C)=O)nc3ccc(-c4cnc(N)c(C(F)(F)F)c4)cn23)cc1 [Example 162]	< 25	< 1
CC(=O)Nc1cn2cc(-c3cnc(N)c(Br)n3)ccc2n1 [Example 164, N-(6-(5-amino-6-bromopyrazin-2-yl)imidazo[1,2-a]pyridin-2-yl)acetamide]	< 25	< 1
CC(C)(C)OC(=O)N1CCC[C@H]1C(=O)Nc1cn2nc(-c3cnc(N)c(C(F)(F)F)c3)ccc2n1 [Example 166, (S)-tert-butyl 2-(6-(6-amino-5-(trifluoromethyl)pyridin-3-yl)imidazo[1,2-b]pyridazin-2-ylcarbamoyl) pyrrolidine-1-carboxylate]	< 25	< 1
C=Cc1c(NC(C)=O)nc2ccc(-c3cnc(N)c(C(F)(F)F)c3)cn12 [Example 168, N-(6-(6-amino-5-(trifluoromethyl)pyridin-3-yl)-3-vinylimidazo[1,2-a]pyridin-2-yl)acetamide]	< 25	< 1
CC(=O)Nc1cn2nc(-c3cnc(N)cn3)ccc2n1 [Example 170]	< 25	< 1
CC(=O)Nc1cn2cc(-c3cnc(N)c(C(F)(F)F)c3)c(F)cc2n1 [Example 171, N-(6-(6-amino-5-(trifluoromethyl)pyridin-3-yl)-7-fluoroimidazo [1,2-a]pyridin-2-yl)acetamide]	< 25	< 1
CC(=O)N1CCC[C@H]1C(=O)Nc1cn2cc(-c3cnc(N)c(C(F)(F)F)c3)ccc2n1 [Example 172, (S)-1-acetyl-N-(6-(6-amino-5-(trifluoromethyl)pyridin-3-yl)imidazo[1,2-a]pyridin-2-yl)pyrrolidine-2-carboxamide]	< 25	< 1
CC(=O)Nc1cn2cc(-c3cnc(N)c(CN4CCCC4)c3)ccc2n1 [Example 173, N-(6-(6-amino-5-(pyrrolidin-1-ylmethyl)pyridin-3-yl)imidazo[1,2-a]pyridin-2-yl)acetamide]	< 25	< 1
CC(C)(C)OC(=O)N1CCC1C(=O)Nc1cn2cc(-c3cnc(N)c(OCC(F)(F)F)n3)ccc2n1 (centres unmarked) [Example 174, tert-butyl 2-(6-(5-amino-6-(2,2,2-trifluoroethoxy)pyrazin-2-yl)imidazo[1,2-a]pyridin-2-ylcarbamoyl) azetidine-1-carboxylate]	< 25	< 1
Nc1ncc(-c2ccc3nc(NC(=O)N4CCCC4c4ccccn4)cn3c2)cc1C(F)(F)F (centres unmarked) [Example 175, N-(6-(6-amino-5-(trifluoromethyl)pyridin-3-yl)imidazo[1,2-a]pyridin-2-yl)-2-(pyridin-2-yl)pyrrolidine-1-carboxamide]	< 25	< 1
Nc1ncc(-c2ccc3nc(NC(=O)c4ccccn4)cn3c2)cc1C(F)(F)F [Example 177]	< 25	< 1
Nc1ncc(-c2ccc3nc(NC(=O)[C@H]4CCCN4)cn3n2)cc1C(F)(F)F [Example 178, (R)-N-(6-(6-amino-5-(trifluoromethyl)pyridin-3-yl)imidazo[1,2-b]pyridazin-2-yl)pyrrolidine-2-carboxamide]	< 25	< 1
CC(C)(C)OC(=O)N1CCC[C@@H]1C(=O)Nc1cn2nc(-c3cnc(N)c(C(F)(F)F)c3)ccc2n1 [Example 179, (R)-tert-butyl amino-5-(trifluoromethyl) pyridin-3-yl)imidazo[1,2-b]pyridazin-2-ylcarbamoyl) pyrrolidine-1-carboxylate]	< 25	< 1
CCN(CC)Cc1cc(-c2ccc3nc(NC(C)=O)cn3c2)cnc1N [Example 181, N-(6-(6-amino-5-((diethylamino)methyl)pyridin-3-yl)imidazo[1,2-a]pyridin-2-yl)acetamide]	< 25	< 1
CC(=O)N1CCC[C@H]1C(=O)Nc1cn2cc(-c3cnc(N)c(Cl)c3)ccc2n1 [Example 182, (S)-1-acetyl-N-(6-(6-amino-5-chloropyridin-3-yl)imidazo[1,2-a]pyridin-2-yl)pyrrolidine-2-carboxamide]	< 25	< 1
CC(=O)Nc1cn2cc(-c3cnc(N)c(-c4ccc(F)cc4)c3)ccc2n1 [Example 183, N-(6-(6-amino-5-(4-fluorophenyl)pyridin-3-yl)imidazo[1,2-a]pyridin-2-yl)acetamide]	< 25	< 1
CCC(=O)Nc1cn2cc(-c3cnc(N)c(OC)n3)ccc2n1 [Example 185, N-(6-(5-amino-6-methoxypyrazin-2-yl)imidazo[1,2-a]pyridin-2-yl)propionamide]	< 10	< 1
CC(=O)Nc1cn2nc(-c3cnc(N)c(-c4cccc(C(F)(F)F)c4)c3)ccc2n1 [Example 186, N-(6-(6-amino-5-(3-(trifluoromethyl)phenyl)pyridin-3-yl)imidazo[1,2-b]pyridazin-2-yl)acetamide]	< 10	< 1
